Reference: patent US20010049373A1, “Materials and methods for killing nematodes and nematode eggs” (priority 2000, published 2001)

How the values were obtained:
[1] = system: Caenorhabditis elegans; experiment: C. elegans L1 larvae dose-response, 5 day visual viability score (Examples 2 and 7); format: in vivo; set-up: key: Dead: only stiff L1s (no movement); Dead (L4): worms are dead, but at a later larval stage; majority of worms are L1 (based on size); majority of worms are L2 (based on size); majority of worms are L3 (based on size); majority of worms are L4 (based on size); AD: majority of worms are adult; #AD: 5 adult worms or less; B!: sterile (0-25 progeny); B: low broodsize (25-100 progeny); ˜B: moderate broodsize (100-250 progeny); <: reduced broodsize (250-500 progeny); OK: no effect (˜1000+ progeny); conditions: day 5, Table 3; for 5 Day Visual Score V6: 0.3 μM (procedure of Example 2); for 5 Day Visual Score V5: 0.9 μM (procedure of Example 2); for 5 Day Visual Score V4: 2.6 μM (procedure of Example 2); for 5 Day Visual Score V3: 7.8 μM (procedure of Example 2); for 5 Day Visual Score V2: 23.3 μM (procedure of Example 2); for 5 Day Visual Score V1: 70 μM (procedure of Example 2)
Description: Caenorhabditis elegans adults were grown on Nematode Growth Medium (NGM) until they produced eggs, then the adults were removed.
The eggs were allowed to hatch, and the L1 larvae collected. See The Neniatode Caenorhabditis elegans (1988) Cold Spring Harbor Laboratory Press. Using a Matrix Programmable Pipette, the L1s were distributed into 96-well tissue culture plates, 20 L1 in 50 μl NGM per well. Antibiotic/Antimyotic was added to each well, and 1% by weight E. coli strain HB101. The subject anthelmintic compounds were stored at 5 mM in 100% DMSO. 0.7 μl of compounds 1-31 were added to the left-most column of wells to yield a final concentration of 70 μM in 1.4% DMSO, with 1.4% DMSO only as the control. The compounds were then subjected to 5 more 3-fold dilutions from left to right to yield 6 column concentrations of 70 μM, 23.3 μM, 7.8 μM, 2.6 μM, 0.9 μM, and 0.3 μM. Plates were stored in air-tight Rubbermaid plastic boxes at 20° C. The nematodes had cleared all control wells by day 4, and nematode viability was scored by visual examination under a 100× dissecting microscope on day 5. A visual viability scoring system was used as follows:
If several classes of worms exist in a well, then all classes are scored. If adults are present, then the brood score is also recorded. Thus, “L1/L2” would mean a mixture of L1's and L2's are present in the well. “L4/#AD/B” would mean that a mixture of L4's and adults are resent in the well. The “#AD” would mean that there are 6 or less adults, and the “B” would mean that there were 100 progeny or less.
Column VI has a compound concentration of 70 μM with sequential 3-fold dilutions reported in columns V2, V3, V4, V5, and V6, respectively, such that the V6 concentration was 0.3 μM.
(§1) The nematicidal activity of anthelmintic Compositions 48-118 were determined in accordance with the procedure outlined in Example 2.

[2] = system: Caenorhabditis elegans; experiment: HTS runs (initial and follow-up): mOD, % Run and visual score (Table 3); format: in vivo; set-up: key to Initial HTS Run Visual Score / Follow-up HTS Run Visual Score: Dead: only stiff L1s (no movement); Dead (L4): worms are dead, but at a later larval stage; majority of worms are L1 (based on size); majority of worms are L2 (based on size); majority of worms are L3 (based on size); majority of worms are L4 (based on size); AD: majority of worms are adult; #AD: 5 adult worms or less; B!: sterile (0-25 progeny); B: low broodsize (25-100 progeny); ˜B: moderate broodsize (100-250 progeny); <: reduced broodsize (250-500 progeny); OK: no effect (˜1000+ progeny)
Description: as §1

| Compound | 5 Day Visual Score V6 [1] | 5 Day Visual Score V5 [1] | 5 Day Visual Score V4 [1] | 5 Day Visual Score V3 [1] | 5 Day Visual Score V2 [1] | 5 Day Visual Score V1 [1] | Follow-up HTS Run % Run [2] [%] | Follow-up HTS Run Visual Score [2] | Follow-up HTS Run mOD [2] [mOD] | Initial HTS Run % Run [2] [%] | Initial HTS Run Visual Score [2] | Initial HTS Run mOD [2] [mOD] |
| --- | --- | --- | --- | --- | --- | --- | --- | --- | --- | --- | --- | --- |
| Clc1cccc(Oc2cc(NCc3ccccc3Cl)ncn2)c1 [AKC 376] | OK (no effect (˜1000+ progeny)) | OK (no effect (˜1000+ progeny)) | OK (no effect (˜1000+ progeny)) | OK (no effect (˜1000+ progeny)) | OK (no effect (˜1000+ progeny)) | L1 | 115 | L2/L3/1AD | 155 | 131 | 2AD/B | 256 |
| NS(=O)(=O)c1cccc(NC(=O)CCN2CCC(c3cccc4[nH]ccc34)CC2)c1 [AKC 377] | OK (no effect (˜1000+ progeny)) | OK (no effect (˜1000+ progeny)) | OK (no effect (˜1000+ progeny)) | OK (no effect (˜1000+ progeny)) | – | L1 | 109 | L4/AD/B!-No P | 147 | 113 | 3AD/B | 220 |
| FC(F)(F)c1cccc(CNc2cc(Oc3cccc(Cl)c3)ncn2)c1 [AKC 379] | OK (no effect (˜1000+ progeny)) | OK (no effect (˜1000+ progeny)) | OK (no effect (˜1000+ progeny)) | OK (no effect (˜1000+ progeny)) | – | Dead | 107 | L4/AD/B! | 144 | 142 | Dead/1AD | 277 |
| Fc1ccc(Oc2cc(NCc3cccc(C(F)(F)F)c3)ncn2)cc1 [AKC 380] | OK (no effect (˜1000+ progeny)) | OK (no effect (˜1000+ progeny)) | OK (no effect (˜1000+ progeny)) | OK (no effect (˜1000+ progeny)) | – | L1 | 102 | L4/AD/B! | 138 | 129 | Dead | 251 |
| Fc1ccccc1Oc1cc(NCc2cccc(C(F)(F)F)c2)ncn1 [AKC 381] | OK (no effect (˜1000+ progeny)) | OK (no effect (˜1000+ progeny)) | OK (no effect (˜1000+ progeny)) | < (reduced broodsize (250-500 progeny)) | ˜B (moderate broodsize (100-250 progeny)) | L1 | 109 | L4/AD/B! | 147 | 138 | Dead/1AD/B! | 270 |
| FC(F)(F)c1cccc(CNc2cc(Oc3ccc(-c4ccccc4)cc3)ncn2)c1 [AKC 382] | OK (no effect (˜1000+ progeny)) | OK (no effect (˜1000+ progeny)) | OK (no effect (˜1000+ progeny)) | OK (no effect (˜1000+ progeny)) | – | Dead | 118 | – | 159 | 141 | Dead | 275 |
| FC(F)(F)c1cccc(CNc2cc(Oc3ccccc3Cl)ncn2)c1 [AKC 383] | OK (no effect (˜1000+ progeny)) | OK (no effect (˜1000+ progeny)) | OK (no effect (˜1000+ progeny)) | OK (no effect (˜1000+ progeny)) | ˜B (moderate broodsize (100-250 progeny)) | L1 | 110 | L4/AD/B! | 149 | 132 | 5AD/B | 257 |
| CC(C)(C)OC(=O)NCc1ccc(-c2cccc(C(=O)Nc3ccc(S(N)(=O)=O)cc3)c2)cc1 [AKC 390] | OK (no effect (˜1000+ progeny)) | OK (no effect (˜1000+ progeny)) | OK (no effect (˜1000+ progeny)) | OK (no effect (˜1000+ progeny)) | – | L1 | 110 | L4 | 148 | 133 | B! (sterile (0-25 progeny)) | 260 |
| C#Cc1cccc(N(CC(=O)Nc2ccc(S(N)(=O)=O)cc2)Cc2cccs2)c1 [AKC 394] | < (reduced broodsize (250-500 progeny)) | OK (no effect (˜1000+ progeny)) | OK (no effect (˜1000+ progeny)) | – | Dead | Dead | 111 | Dead | 150 | 135 | Dead | 264 |
| CCCCCCCCCCCCNc1cc(Oc2ccccc2OC)ncn1 [AKC 398] | OK (no effect (˜1000+ progeny)) | < (reduced broodsize (250-500 progeny)) | OK (no effect (˜1000+ progeny)) | #AD/˜B | Dead | Dead | 93 | Dead | 126 | 118 | Dead | 231 |
| CCCCCCCCCCCCNc1cc(Oc2ccccc2Cl)ncn1 [AKC 404] | OK (no effect (˜1000+ progeny)) | OK (no effect (˜1000+ progeny)) | OK (no effect (˜1000+ progeny)) | OK (no effect (˜1000+ progeny)) | Dead | Dead | 124 | Dead | 168 | 155 | Dead | 302 |
| CCC(NC(=O)Nc1ccc(NC(=O)C2CCCO2)cc1)c1cccc(S(N)(=O)=O)c1 (centres unmarked) [AKC 405] | OK (no effect (˜1000+ progeny)) | OK (no effect (˜1000+ progeny)) | OK (no effect (˜1000+ progeny)) | #AD/˜B | L1 | L1 | 120 | 1AD/B! | 162 | 141 | 4AD/B | 274 |
